Active and inactive are the calls of the source. The rule behind the calls is not given here.
What was measured:
Homo sapiens [1] = organism: Homo sapiens; experiment: Inhibition of human topoisomerase-2 assessed as reduction in relaxation of kinetoplast DNA at 100 uM after 30 mins by ethidium bromide staining based agarose gel electrophoresis method
A549 = experiment: Cytotoxicity against human A549 cells after 48 hrs by MTT assay; format: functional, cell-based; details: A549, 48 h
Homo sapiens [2] = organism: Homo sapiens; experiment: Inhibition of human topoisomerase-2 assessed as reduction in relaxation of kinetoplast DNA at 200 uM after 30 mins by ethidium bromide staining based agarose gel electrophoresis method
[3] = Cytotoxicity against human H8 cells after 48 hrs by MTT assay; format: cell-based
L02 [4] = experiment: Cytotoxicity against human HL7702 cells after 48 hrs by MTT assay; format: cell-based; details: L02, 48 h
MRC5 = experiment: Cytotoxicity against human MRC5 cells after 48 hrs by MTT assay; format: cell-based; details: MRC5, 48 h
HMEC = experiment: Cytotoxicity against HMEC after 48 hrs by MTT assay; format: cell-based; details: Homo sapiens
MCF7 = experiment: Cytotoxicity against human MCF7 cells after 48 hrs by MTT assay; format: functional, cell-based; details: MCF7, 48 h
HepG2 [5] = experiment: Cytotoxicity against human HepG2 cells after 48 hrs by MTT assay; format: functional, cell-based; details: HepG2, 48 h
HeLa = experiment: Cytotoxicity against human HeLa cells after 48 hrs by MTT assay; format: functional, cell-based
Homo sapiens [6] = organism: Homo sapiens; experiment: Inhibition of human topoisomerase-2 assessed as reduction in relaxation of kinetoplast DNA at 50 uM after 30 mins by ethidium bromide staining based agarose gel electrophoresis method
HepG2 [7] = experiment: Induction of apoptosis in human HepG2 cells assessed as late apoptotic cells at 10 uM after 42 hrs by Annexin V-FITC/propidium iodide staining based flow cytometry (reference value: 0.9%); format: functional
L02 [8] = experiment: Upregulation of COX5A expression in human HL7702 cells at 50 uM after 12 hrs by proteomic analysis relative to control; format: functional, cell-based
HepG2 [9] = experiment: Cell cycle arrest in human HepG2 cells assessed as accumulation at G2/M phase at 1 uM after 42 hrs by propidium iodide staining based flow cytometry relative to control; format: functional
L02 [10] = experiment: Induction of apoptosis in human HL7702 cells assessed as early apoptotic cells at 100 uM after 42 hrs by Annexin V-FITC/propidium iodide staining based flow cytometry (reference value: 0.3%); format: cell-based; details: l02, 42 h
L02 [11] = experiment: Induction of apoptosis in human HL7702 cells assessed as necrotic cells at 100 uM after 42 hrs by Annexin V-FITC/propidium iodide staining based flow cytometry (reference value: 0.2%); format: cell-based; details: l02, 42 h
HepG2 [12] = experiment: Induction of apoptosis in human HepG2 cells assessed as necrotic cells at 10 uM after 42 hrs by Annexin V-FITC/propidium iodide staining based flow cytometry (reference value: 0.3%); format: functional
[13] = Induction of apoptosis in human HL7702 cells assessed as live cells at 100 uM after 42 hrs by Annexin V-FITC/propidium iodide staining based flow cytometry (reference value: 98.5%); format: cell-based; details: HL7702 (L02) cells, read-out: Activity
L02 [14] = experiment: Upregulation of Akt expression in human HL7702 cells at 50 uM after 12 hrs by proteomic analysis relative to control; format: functional, cell-based
L02 [15] = experiment: Induction of DNA damage in human HL7702 cells assessed as gammaH2AX accumulation at 50 uM after 12 hrs by DAPI staining based immuno-fluorescence assay; format: cell-based; details: l02, 12 h
HepG2 [16] = experiment: Induction of apoptosis in human HepG2 cells assessed as early apoptotic cells at 10 uM after 42 hrs by Annexin V-FITC/propidium iodide staining based flow cytometry (reference value: 0.5%); format: functional
L02 [17] = experiment: Cell cycle arrest in human HL7702 cells assessed as accumulation at G2/M phase at 5 to 10 uM after 42 hrs by propidium iodide staining based flow cytometry relative to control; details: l02, 42 h
L02 [18] = experiment: Upregulation of SRSF3 expression in human HL7702 cells at 50 uM after 12 hrs by proteomic analysis relative to control; format: functional, cell-based
HepG2 [19] = experiment: Cell cycle arrest in human HepG2 cells assessed as accumulation at G2/M phase at 5 to 10 uM after 42 hrs by propidium iodide staining based flow cytometry; format: functional
L02 [20] = experiment: Upregulation of HMGB1 expression in human HL7702 cells at 50 uM after 12 hrs by proteomic analysis; format: functional, cell-based
HepG2 [21] = experiment: Induction of apoptosis in human HepG2 cells assessed as live cells at 10 uM after 42 hrs by Annexin V-FITC/propidium iodide staining based flow cytometry (reference value: 98.2%); format: functional
L02 [22] = experiment: Upregulation of PARK7 expression in human HL7702 cells at 50 uM after 12 hrs by proteomic analysis; format: functional, cell-based
L02 [23] = experiment: Induction of apoptosis in human HL7702 cells assessed as late apoptotic cells at 100 uM after 42 hrs by Annexin V-FITC/propidium iodide staining based flow cytometry (reference value: 1%); format: cell-based; details: l02, 42 h

Row | Structure (SMILES) | IC50 (A549) [µM] | IC50 [3] [µM] | IC50 (L02 [4]) [µM] | IC50 (MRC5) [µM] | IC50 (HMEC) [µM] | IC50 (MCF7) [µM] | IC50 (HepG2 [5]) [µM] | IC50 (HeLa) [µM] | other results
1 | COc1cc([C@@H]2c3cc4c(cc3[C@@H](c3nc5cnc(F)cc5[nH]3)[C@H]3COC(=O)[C@H]23)OCO4)cc(OC)c1O | 24.5 | 34 | 29.8 | 41.3 | > 100 | 16.4 | 22.5 | 11.9 | inhibition (Homo sapiens [1]): inactive; inhibition (Homo sapiens [2]): Active; inhibition (Homo sapiens [6]): inactive
2 | COc1cc([C@@H]2c3cc4c(cc3[C@@H](c3nc5cc(C(F)(F)F)ccc5s3)[C@H]3COC(=O)[C@H]23)OCO4)cc(OC)c1O | 6.5 | 81 | 79.5 | 73.3 | 42.3 | 34.5 | 19.5 | 21.1 | –
3 | COc1cc([C@@H]2c3cc4c(cc3[C@@H](c3nc5cc(C)ccc5s3)[C@H]3COC(=O)[C@H]23)OCO4)cc(OC)c1O | 3 | 27.5 | 24.2 | 47 | 15.6 | 5.4 | 8.2 | 5.1 | –
4 | COc1cc([C@@H]2c3cc4c(cc3[C@@H](C3CC(c5ccncc5F)=CN3)[C@H]3COC(=O)[C@H]23)OCO4)cc(OC)c1O (some centres not stated) | 1.4 | 19.2 | 19.8 | 28.1 | 31.5 | 2.5 | 2.8 | 1.9 | –
5 | COc1cc([C@@H]2c3cc4c(cc3[C@@H](c3nc5cc(OC(F)F)ccc5[nH]3)[C@H]3COC(=O)[C@H]23)OCO4)cc(OC)c1O | 1.3 | 55.4 | 15.6 | 60.2 | 51.4 | 2.4 | 1.6 | 2.1 | –
6 | COc1cc([C@@H]2c3cc4c(cc3[C@@H](c3nc5cc(-c6ccccc6)ccc5o3)[C@H]3COC(=O)[C@H]23)OCO4)cc(OC)c1O | > 100 | > 100 | 21.7 | 76.3 | 83.4 | > 100 | > 100 | > 100 | –
7 | COc1cc([C@@H]2c3cc4c(cc3[C@@H](O[C@@H]3O[C@@H]5CO[C@@H](C)O[C@H]5[C@H](O)[C@H]3O)[C@H]3COC(=O)[C@H]23)OCO4)cc(OC)c1O [ETOPOSIDE] | 22.5 | 75.4 | 24.6 | 33.5 | 21.5 | 53.8 | 20 | 21.4 | inhibition (Homo sapiens [1]): Active; Activity (HepG2 [7]): 11%; Activity (L02 [8]): inactive; inhibition (Homo sapiens [2]): Active; Activity (HepG2 [9]): 33%; Activity (L02 [10]): 37%; Activity (L02 [11]): 2.2%; Activity (HepG2 [12]): 5.4%; viability at 42 h, 100 µM [13]: 28%; Activity (L02 [14]): inactive; Activity (L02 [15]): Toxic; Activity (HepG2 [16]): 7%; Activity (L02 [17]): 64%; Activity (L02 [18]): inactive; Activity (HepG2 [19]): Active; Activity (L02 [20]): inactive; Activity (HepG2 [21]): 76.6%; Activity (L02 [22]): inactive; Activity (L02 [23]): 32.8%; inhibition (Homo sapiens [6]): inactive
8 | COc1cc([C@@H]2c3cc4c(cc3[C@@H](O)[C@H]3COC(=O)[C@H]23)OCO4)cc(OC)c1O [4'-DEMETHYLEPIPODOPHYLLOTOXIN] | 19 | 25.1 | 19.4 | 21.3 | 19.6 | 30.1 | 26.1 | 27.8 | –
9 | COc1cc([C@@H]2c3cc4c(cc3[C@@H](c3nc5cc(C(F)(F)F)ccc5o3)[C@H]3COC(=O)[C@H]23)OCO4)cc(OC)c1O | 6.5 | 81 | 79.5 | 73.3 | 72.8 | 34.5 | 19.5 | 21.1 | –
10 | COc1cc([C@@H]2c3cc4c(cc3[C@@H](c3nc5c(F)c(F)c(F)c(F)c5s3)[C@H]3COC(=O)[C@H]23)OCO4)cc(OC)c1O | 4.2 | 24.7 | 35.6 | 41.4 | 18.2 | 5.5 | 14.5 | 2.3 | –
11 | COc1cc([C@@H]2c3cc4c(cc3[C@@H](c3nc5cc(-c6ccccc6)ccc5s3)[C@H]3COC(=O)[C@H]23)OCO4)cc(OC)c1O | 5.7 | 47.6 | 18.6 | 35.6 | 54.1 | > 100 | 15.3 | 22.5 | –
12 | COc1cc([C@@H]2c3cc4c(cc3[C@@H](C3CC(S)NN3c3ccccc3F)[C@H]3COC(=O)[C@H]23)OCO4)cc(OC)c1O (some centres not stated) | 2.8 | 64.2 | 73 | 89.2 | 58.2 | 1.5 | 4.5 | 3.8 | –
13 | COc1cc([C@@H]2c3cc4c(cc3[C@@H](c3nc5ccccc5s3)[C@H]3COC(=O)[C@H]23)OCO4)cc(OC)c1O | 2.6 | 19.4 | 22.7 | 136 | 28.6 | 11.5 | 6.7 | 5.1 | –
14 | COc1cc([C@@H]2c3cc4c(cc3[C@@H](c3nc5cc(C)ccc5o3)[C@H]3COC(=O)[C@H]23)OCO4)cc(OC)c1O | 8 | 19.5 | 31.5 | 39 | 12.6 | 14.4 | 15.4 | 15.4 | –
15 | COc1cc([C@@H]2c3cc4c(cc3[C@@H](C3CC(c5ccncc5)=CN3)[C@H]3COC(=O)[C@H]23)OCO4)cc(OC)c1O (some centres not stated) | 2 | 23.6 | 22.8 | 19 | 38.1 | 4.3 | 10 | 5.7 | –
16 | COc1cc([C@@H]2c3cc4c(cc3[C@@H](c3nc5c(F)c(F)c(F)c(F)c5o3)[C@H]3COC(=O)[C@H]23)OCO4)cc(OC)c1O | 1.7 | 44.6 | 75.1 | 65.4 | 75.5 | 3.5 | 6.8 | 4.3 | –
17 | COc1cc([C@@H]2c3cc4c(cc3[C@@H](c3nc5ccccc5o3)[C@H]3COC(=O)[C@H]23)OCO4)cc(OC)c1O | 25.6 | 20.4 | 17.7 | 32.3 | 15.6 | 21.4 | 19.4 | 16.4 | –
18 | COc1cc([C@@H]2c3cc4c(cc3[C@@H](c3nc5cnccc5[nH]3)[C@H]3COC(=O)[C@H]23)OCO4)cc(OC)c1O | > 100 | > 100 | 59.8 | 63.4 | > 100 | > 100 | > 100 | > 100 | –
